Laboratory results reported in patent US10842152B2, “Isothiazolo-based bicycles, processes for their preparation and their use as herbicides and/or plant growth regulators” (Bayer CropScience Aktiengesellschaft, priority 2017, dated 2020).

Columns and labels:
[1] = system: Amaranthus retroflexus; test: Herbicidal effect pre-emergence; type: in vivo; details: 320 g/ha, visual grading after ca. 3 weeks vs untreated controls
Source text: (§1) Herbicidal activities of the compounds of the formulae (G1) or (G2) according to the invention were investigated against the following harmful plants: • ALOMY=Alopecurus myosuroides • ECHCG=Echinochloa crus-galli • SETVI=Setaria viridis • ABUTH=Abutilon theophrasti • AMARE=Amaranthus retroflexus • PHBPU=Pharbitis purpurea • POLCO=Polygonum convolvulus (=Fallopia convolvulus) • STEME=Stellaria media • VIOTR=Viola tricolor
(§2) Seeds of mono- and dicotyledonous weed plants and crop plants are sown in wood-fiber pots in sandy loam and covered with soil. The compounds according to the invention, formulated in the form of wettable powders (WP) or as emulsifiable concentrates (EC), are then applied to the surface of the covering soil as aqueous suspension or emulsion, with the addition of 0.5% of an additive, at an application rate of 600 l of water/ha (converted).
(§3) Following treatment, the pots are placed in a greenhouse and kept under optimum growth conditions for the test plants. The visual grading of the damage to the test plants is carried out after ca. 3 weeks in comparison to untreated controls (herbicidal effect in percent (%): 100% effect=plants have died off, 0% effect=as control plants).

[2] = system: Setaria viridis; test: Herbicidal effect pre-emergence; type: in vivo; details: 320 g/ha, visual grading after ca. 3 weeks vs untreated controls
Source text: as §1, §2, §3

[3] = system: Viola tricolor; test: Herbicidal effect pre-emergence; type: in vivo; details: 320 g/ha, visual grading after ca. 3 weeks vs untreated controls
Source text: as §1, §2, §3

[4] = system: Abutilon theophrasti; test: Herbicidal effect post-emergence; type: in vivo; details: 320 g/ha, visual grading after ca. 3 weeks (Table 8)
Source text: as §1
(§4) Seeds of mono- and dicotyledonous weed plants and crop plants are sown in wood-fiber pots in sandy loam, covered with soil and grown in a greenhouse under controlled growth conditions. 2 to 3 weeks after sowing, the test plants are sprayed in the single-leaf stage. The compounds according to the invention, formulated in form of wettable powders (WP) or as emulsifiable concentrates (EC), are then sprayed onto the green plant parts as aqueous suspension or emulsion, with the addition of 0.5% of an additive, at an application rate of 600 l of water/ha (converted). After the test plants had been in the greenhouse for ca. 3 weeks under optimum growth conditions, the effect of the preparations is assessed visually in comparison with untreated controls (herbicidal effect in percent (%): 100% effect=plants have died off, 0% effect=as control plants).

[5] = system: Amaranthus retroflexus; test: Herbicidal effect post-emergence; type: in vivo; details: 320 g/ha
Source text: as §1, §4

[6] = system: Setaria viridis; test: Herbicidal effect post-emergence; type: in vivo; details: 320 g/ha
Source text: as §1, §4

[7] = system: Viola tricolor; test: Herbicidal effect post-emergence; type: in vivo; details: 320 g/ha
Source text: as §1, §4

[8] = system: Alopecurus myosuroides; test: Herbicidal effect pre-emergence; type: in vivo; details: 320 g/ha, visual grading after ca. 3 weeks vs untreated controls
Source text: as §1, §2, §3

[9] = system: Stellaria media; test: Herbicidal effect pre-emergence; type: in vivo; details: 320 g/ha, visual grading after ca. 3 weeks vs untreated controls
Source text: as §1, §2, §3

[10] = system: MATIN; test: Herbicidal effect pre-emergence; type: in vivo, Matricaria inodora; details: 320 g/ha, visual grading after ca. 3 weeks vs untreated controls
Source text: as §2, §3

[11] = system: Pharbitis purpurea; test: Herbicidal effect post-emergence; type: in vivo; details: 320 g/ha, visual grading after ca. 3 weeks (Table 7)
Source text: as §1, §4

[12] = system: Polygonum convolvulus (=Fallopia convolvulus); test: Herbicidal effect post-emergence; type: in vivo; details: 320 g/ha, visual grading after ca. 3 weeks (Table 7)
Source text: as §1, §4

[13] = system: Stellaria media; test: Herbicidal effect post-emergence; type: in vivo; details: 320 g/ha, visual grading after ca. 3 weeks (Table 7)
Source text: as §1, §4

[14] = system: MATIN; test: Herbicidal effect post-emergence; type: in vivo, Matricaria inodora; details: 320 g/ha, visual grading after ca. 3 weeks (Table 7)
Source text: as §4

[15] = system: Meloidogyne incognita; test: Meloidogyne incognita test; type: in vivo; details: application rate 20 ppm, after 14 days, salad seedlings
Method: Solvent: 125.0 parts by weight of acetone
To produce a suitable preparation of active compound, 1 part by weight of active compound is mixed with the stated amount of solvent, and the concentrate is diluted with water to the desired concentration.
Vessels are filled with sand, a solution of the active ingredient, a suspension containing eggs and larvae of the southern root-knot nematode (Meloidogyne incognita) and salad seeds. The salad seeds germinate and the seedlings grow. Galls develop in the roots.
After 14 days the nematicidal activity is determined on the basis of the percentage of gall formation. 100% means no galls were found and 0% means the number of galls found on the roots of the treated plants was equal to that in untreated control plants.

[16] = system: Nezara viridula; test: Nezara viridula spray test; type: in vivo; details: application rate 500 g/ha, after 4 days, barley plants
Method: Solvent: 78.0 parts by weight of acetone • • 1.5 parts by weight of dimethylformamide
Emulsifier: alkylarylpolyglycol ether
To produce a suitable preparation of active compound, 1 part by weight of active compound is mixed with the stated amount of solvent, and the concentrate is diluted with water, containing an emulsifier concentration of 1000 ppm, to the desired concentration. Further test concentrations are prepared by dilution with emulsifier containing water.
Barley plants (Hordeum vulgare) infested with larvae of the southern green stink bug (Nezara viridula) are sprayed with a test solution containing the desired concentration of the active ingredient.
After 4 days mortality in % is determined. 100% means all the stink bugs have been killed; 0% means none of the stink bugs have been killed.

[17] = visual grading after ca. 3 weeks (Table 8)
[18] = visual grading after ca. 3 weeks (Table 7)
[19] = visual grading after ca. 3 weeks (Table 9)

Row | SMILES | herbicidal effect AMARE [1] [%] | herbicidal effect SETVI [2] [%] | herbicidal effect VIOTR [3] [%] | herbicidal effect ALOMY [8] [%] | herbicidal effect STEME [9] [%] | herbicidal effect MATIN [10] [%] | herbicidal effect AMARE [5, 18] [%] | herbicidal effect PHBPU [11] [%] | herbicidal effect POLCO [12] [%] | herbicidal effect SETVI [6, 18] [%] | herbicidal effect STEME [13] [%] | herbicidal effect VIOTR [7, 18] [%] | herbicidal effect MATIN [14] [%] | also measured
1 | CCC(=O)OCC1Cc2c(N)nsc2C(=O)N1CC1CCCCC1 (stereo not shown) [Example I-039] | 100 | 100 | 100 |  |  |  |  |  |  |  |  |  |  | herbicidal effect ABUTH [4]: 100%; herbicidal effect AMARE [5, 17]: 100%; herbicidal effect SETVI [6, 17]: 100%; herbicidal effect VIOTR [7, 17]: 100%
2 | O=C(Nc1nsc2c(=O)n(CC3CCCCC3)cc(F)c12)C(F)(F)C(F)(F)F [Example I-127] | 100 | 100 | 100 | 100 | 100 | 100 | 100 | 100 | 100 | 100 | 100 | 100 | 100 | 
3 | Nc1nsc2c(=O)n(Cc3cc(F)c(F)cc3F)cc(F)c12 [Example I-163] | 100 | 100 | 100 | 100 | 100 | 100 |  |  |  |  |  |  |  | herbicidal effect ABUTH [4]: 90%; herbicidal effect AMARE [5, 17]: 100%; herbicidal effect SETVI [6, 17]: 90%; herbicidal effect VIOTR [7, 17]: 90%
4 | CC(C)Cc1cc2c(N)nsc2c(=O)n1CC1CCCCC1 [Example I-050] |  |  |  |  |  |  |  |  |  |  |  |  |  | nematicidal activity (gall formation) [15]: 90%
5 | CCC(=O)N(C(=O)CC)c1nsc2c(=O)n(CC3CCCCC3)c(COC3CCCCO3)cc12 (stereo not shown) [Example I-042] |  |  |  |  |  |  |  |  |  |  |  |  |  | herbicidal effect AMARE [5, 19]: 100%; herbicidal effect SETVI [6, 19]: 90%; herbicidal effect VIOTR [7, 19]: 100%; nematicidal activity (gall formation) [15]: 90%
6 | CCC(=O)Nc1nsc2c(=O)n(CC3CCCCC3)cc(F)c12 [Example I-128] | 100 | 100 | 100 | 100 | 100 | 100 | 100 | 100 | 100 | 100 | 100 | 100 | 100 | 
7 | CCC(=O)N(C(=O)CC)c1nsc2c(=O)n(CC3CCCCC3)c(CO)cc12 [Example I-049] | 100 | 100 | 90 | 80 | 100 | 80 |  |  |  |  |  |  |  | herbicidal effect AMARE [5, 19]: 90%; herbicidal effect SETVI [6, 19]: 100%; herbicidal effect VIOTR [7, 19]: 100%; nematicidal activity (gall formation) [15]: 90%
8 | CCC(=O)Nc1nsc2c(=O)n(CC3CCCCC3)cc(Cl)c12 [Example I-083] | 100 | 100 | 100 | 100 | 100 | 100 |  |  |  |  |  |  |  | herbicidal effect ABUTH [4]: 80%; herbicidal effect AMARE [5, 17]: 100%; herbicidal effect SETVI [6, 17]: 100%; herbicidal effect VIOTR [7, 17]: 100%
9 | CCC(=O)Nc1nsc2c(=O)n(CC3CCCCC3Cl)cc(Cl)c12 (racemic) [Example I-172] | 100 | 100 | 100 | 100 | 100 | 100 |  |  |  |  |  |  |  | herbicidal effect ABUTH [4]: 100%; herbicidal effect AMARE [5, 17]: 100%; herbicidal effect SETVI [6, 17]: 80%; herbicidal effect VIOTR [7, 17]: 100%
10 | Nc1nsc2c(=O)n(CC3CCCCC3)cc(Cl)c12 [Example I-064] | 100 | 100 | 100 | 100 | 100 | 100 | 100 | 100 | 100 | 100 | 100 | 100 | 100 | 
11 | Nc1nsc2c(=O)n(Cc3cc(F)c(F)cc3F)cc(Cl)c12 [Example I-136] | 100 | 100 | 100 | 100 | 100 | 90 | 100 | 100 | 100 | 90 | 100 | 100 | 100 | 
12 | CC(=O)Nc1nsc2c(=O)n(CC3CCCCC3)cc(Br)c12 [Example I-102] | 100 | 100 | 100 |  |  |  |  |  |  |  |  |  |  | herbicidal effect AMARE [5, 19]: 100%; herbicidal effect SETVI [6, 19]: 100%; herbicidal effect VIOTR [7, 19]: 100%; mortality [16]: 90%
13 | Nc1nsc2c(=O)n(CC3CCCCC3Cl)cc(Cl)c12 (racemic) [Example I-156] | 100 | 100 | 100 | 100 | 100 | 100 | 100 | 100 | 100 | 100 | 100 | 100 | 80 | 
14 | Nc1nsc2c(=O)n(CC3CCCCC3)c(COC3CCCCO3)cc12 (stereo not shown) [Example I-038] |  |  |  |  |  |  |  |  |  |  |  |  |  | nematicidal activity (gall formation) [15]: 90%
15 | O=C(Nc1nsc2c(=O)n(CC3CCCCC3Cl)cc(Cl)c12)C(F)(F)C(F)(F)F (racemic) [Example I-161] | 100 | 100 | 100 | 100 | 100 | 100 | 100 | 100 | 100 | 100 | 100 | 100 | 80 | 
16 | CCC(=O)Nc1nsc2c(=O)n(CC3CCCCC3)cc(Br)c12 [Example I-078] | 100 | 100 | 100 | 100 | 100 | 100 |  |  |  |  |  |  |  | herbicidal effect AMARE [5, 19]: 100%; herbicidal effect SETVI [6, 19]: 100%; herbicidal effect VIOTR [7, 19]: 80%; mortality [16]: 90%
